Results on eight compounds are retold here after patent US5189034A, “Benzoxazinone and benzothiazinone derivatives endowed with cardiovascular activity” (Italfarmaco S.P.A., priority 1990, dated 1993).

As a reminder, the IC50 is the concentration that gives 50% inhibition. Broadly, the ED50 is the dose that gives a 50% effect, or the effect in half of the subjects.

The conditions of assay [1]: B. W. Horrom et al., J. Org. Chem., 72, 721 (1950); cited from earlier work.
Assay [2] has as its system rabbit aorta strip contracted with noradrenaline. Briefly: rabbit aorta strip contracted with noradrenaline (in vitro vasorelaxing activity). The class given is cell-based. The note with it: Oryctolagus cuniculus, concentration causing 50% inhibition of the contraction of the rabbit aorta strip, read-out: Vasodilative activity in vitro IC50. As for the experimental part: The in vitro vasorelaxing activity was determined by the test of the rabbit aorta strip contracted with noradrenaline. The test was carried out according to the method described by K. Murakami et al., Eur. J. Pharmacol., 141, 195 (1987).
The IC50 values i.e., the concentrations of active substances, causing a 50% inhibition of the contraction of the rabbit strip, were determined.

For assay [3], the system named is Arg-vasopressin induced coronaric spasm in anesthetized Sprague Dawley rats. Briefly: antianginal activity in vivo, Arg-vasopressin-induced coronaric spasm (increase of the T-wave). The note with it: for % Inhibition of the increase of the T-wave versus the controls: 3 mg/Kg per os, Arg-vasopressin i.v.; for ED50: Rattus norvegicus, iv, 4 increasing doses, Arg-vasopressin, read-out: ED50 (i.v.), dose yielding the 50% inhibition of the increase of the T-wave. The procedure: The antianginal activity in vivo was determined on anesthetized Sprague Dawley rats of weight 350-400 g, operating according to the method of M. Leitold et al., Arzeim. Forsch., 36, 1454, (1986). The test was carried out by intravenously administering the animals with one I.U/Kg, equivalent to […] of Arg-vasopressin, thus inducing a coronaric spasm that is reproducible and may be electrocardiographically monitored by an increase of the T-wave. The compounds of the invention were administered by gastric gavage at a dose of 3 mg/Kg one […] before the administration of Arg-vasopressin. The antianginal effect was expressed as the percentage inhibition of the increase of the T-wave versus the controls. Another group of animals were intravenously administered with 4 increasing doses of the compound of the invention to measure their ED50, i.e. the dose yielding the 50% inhibition of the increase of the T-wave.

Take `O=C1NC(c2ccccc2)Oc2ccccc21` (stereo not shown) [2,3-dihydro-2-phenyl-4H-1,3-benzoxazin-4-one]: the analgesic activity entry in assay [1] is reported as “endowed with analgesic activity”.

On to `O=C1c2ccccc2OCN1CCO[N+](=O)[O-]` [Example 1, 2,3-Dihydro-3-(2'-nitrooxyethyl)-4H-1,3-benzoxazin-4-one], for which the half-maximal inhibitory concentration (IC50) in assay [2] amounted to 94 nM. In addition, in assay [3], the “% Inhibition of the increase of the T-wave versus the controls” value is 55% and the ED50 turned out to be 0.0013 mg/kg.

`Cc1ccc2c(c1)C(=O)N(CCO[N+](=O)[O-])CO2` [Example 2, 2,3-Dihydro-6-methyl-3-(2'-nitrooxyethyl)-4H-1,3-benzoxazin-4-one]: the half-maximal inhibitory concentration (IC50) in assay [2] came to 5.4 nM. The ED50 in assay [3] came to 0.0063 mg/kg.

Take `O=C1c2ccc(Cl)cc2OCN1CCO[N+](=O)[O-]` [Example 3, 7-Chloro-2,3-dihydro-3-(2'-nitrooxyethyl)-4H-1,3-benzoxazin-4-one]: the half-inhibitory concentration (IC50) in assay [2] came to 6.3 nM. In addition, in assay [3], the “% Inhibition of the increase of the T-wave versus the controls” value turned out to be 31% and the ED50 stood at 0.011 mg/kg.

Consider `Cc1ccc2c(c1)OCN(CCO[N+](=O)[O-])C2=O` [Example 4, 2,3-Dihydro-7-methyl-3-(2'-nitrooxyethyl)-4H-1,3-benzoxazin-4-one], for which the IC50 in assay [2] came to 75 nM. In addition, in assay [3], the “% Inhibition of the increase of the T-wave versus the controls” value is 31% and the ED50 stood at 0.012 mg/kg.

On to `O=C1c2ccccc2OCN1CCCCCO[N+](=O)[O-]` [Example 8, 2,3-Dihydro-3-(5'-nitrooxypentyl)-4H-1,3-benzoxazin-4-one], for which the IC50 in assay [2] was found to be 19 nM. Also, the median effective dose (ED50) in assay [3] turned out to be 0.058 mg/kg.

For the compound `COc1ccc2c(c1)OCN(CCO[N+](=O)[O-])C2=O` [Example 9, 2,3-Dihydro-7-methoxy-3-(2'-nitrooxyethyl)-4H-1,3-benzoxazin-4-one], the 50% inhibitory concentration (IC50) in assay [2] is 14 nM.

In the case of `O=C1c2ccccc2SCN1CCO[N+](=O)[O-]` [Example 10, 3(2'-nitrooxyethyl)-2,3-dihydro-4H-1,3-benzothiazin-4-one], the IC50 in assay [2] is 17 nM.
